Converted amounts (≈) assume the structure as drawn.
Columns and labels:
Format in all cases: functional
Staphylococcus aureus [1] = assay: Ratio of norfloxacin MIC to compound MIC for quinolone-resistant Staphylococcus aureus CCARM 3519 clinical isolate
Staphylococcus aureus [2] = assay: Antibacterial activity against quinolone-resistant Staphylococcus aureus CCARM 3505 clinical isolate after 24 hrs by broth microdilution method; conditions: CCARM 3505, 24 h
Staphylococcus aureus [3] = assay: Antibacterial activity against Staphylococcus aureus RN4220 after 24 hrs by broth microdilution method; conditions: RN4220, 24 h
Staphylococcus aureus [4] = assay: Antibacterial activity against Staphylococcus aureus KCTC 209 after 24 hrs by broth microdilution method; conditions: KCTC 209, 24 h
Staphylococcus aureus [5] = assay: Antibacterial activity against Staphylococcus aureus KCTC 503 after 24 hrs by broth microdilution method; conditions: KCTC 503, 24 h
Staphylococcus aureus [6] = assay: Antibacterial activity against methicillin-resistant Staphylococcus aureus CCARM 3506 clinical isolate after 24 hrs by broth microdilution method; conditions: CCARM 3506, 24 h
Staphylococcus aureus [7] = assay: Ratio of norfloxacin MIC to compound MIC for methicillin-resistant Staphylococcus aureus CCARM 3167 clinical isolate
Escherichia coli = assay: Antibacterial activity against Escherichia coli CCARM 1356 after 24 hrs by broth microdilution method; conditions: CCARM 1356, 24 h
Staphylococcus aureus [8] = assay: Ratio of norfloxacin MIC to compound MIC for methicillin-resistant Staphylococcus aureus CCARM 3506 clinical isolate
Staphylococcus aureus [9] = assay: Antibacterial activity against quinolone-resistant Staphylococcus aureus CCARM 3519 clinical isolate after 24 hrs by broth microdilution method; conditions: CCARM 3519, 24 h
Staphylococcus aureus [10] = assay: Ratio of norfloxacin MIC to compound MIC for quinolone-resistant Staphylococcus aureus CCARM 3505 clinical isolate
Staphylococcus aureus [11] = assay: Antibacterial activity against methicillin-resistant Staphylococcus aureus CCARM 3167 clinical isolate after 24 hrs by broth microdilution method; conditions: CCARM 3167, 24 h

SMILES	Ratio (Staphylococcus aureus [1])	MIC (Staphylococcus aureus [2]) [µg/mL]	MIC (Staphylococcus aureus [3]) [µg/mL]	MIC (Staphylococcus aureus [4]) [µg/mL]	MIC (Staphylococcus aureus [5]) [µg/mL]	MIC (Staphylococcus aureus [6]) [µg/mL]	Ratio (Staphylococcus aureus [7])	MIC (Escherichia coli) [µg/mL]	Ratio (Staphylococcus aureus [8])	MIC (Staphylococcus aureus [9]) [µg/mL]	Ratio (Staphylococcus aureus [10])	MIC (Staphylococcus aureus [11]) [µg/mL]
O=C(/C=C/c1ccc(/C=C2\SC(=S)N([C@@H](Cc3ccccc3)C(=O)O)C2=O)cc1)c1ccc2ccccc2c1	2	2 (≈ 3.64 µM)	2 (≈ 3.64 µM)	8 (≈ 14.6 µM)	8 (≈ 14.6 µM)	4 (≈ 7.28 µM)	2	> 64	2	2 (≈ 3.64 µM)	2	2 (≈ 3.64 µM)
O=C(/C=C/c1ccc(/C=C2\SC(=S)N([C@@H](Cc3ccccc3)C(=O)O)C2=O)cc1)c1ccccc1F	2	8 (≈ 15.5 µM)	4 (≈ 7.73 µM)	16 (≈ 30.9 µM)	16 (≈ 30.9 µM)	4 (≈ 7.73 µM)	2	> 64	2	8 (≈ 15.5 µM)	2	4 (≈ 7.73 µM)
O=C(/C=C/c1ccc(/C=C2\SC(=S)N([C@@H](Cc3ccccc3)C(=O)O)C2=O)cc1)c1ccc(F)cc1	2	8 (≈ 15.5 µM)	4 (≈ 7.73 µM)	16 (≈ 30.9 µM)	16 (≈ 30.9 µM)	4 (≈ 7.73 µM)	2	> 64	2	8 (≈ 15.5 µM)	2	4 (≈ 7.73 µM)
O=C(/C=C/c1ccc(/C=C2\SC(=S)N([C@@H](Cc3ccccc3)C(=O)O)C2=O)cc1)c1ccccc1Cl	2	4 (≈ 7.49 µM)	2 (≈ 3.74 µM)	16 (≈ 30 µM)	16 (≈ 30 µM)	4 (≈ 7.49 µM)	2	> 64	2	4 (≈ 7.49 µM)	2	2 (≈ 3.74 µM)
O=C(/C=C/c1ccc(/C=C2\SC(=S)N([C@@H](Cc3ccccc3)C(=O)O)C2=O)cc1)c1cccc(Cl)c1	2	8 (≈ 15 µM)	2 (≈ 3.74 µM)	16 (≈ 30 µM)	16 (≈ 30 µM)	4 (≈ 7.49 µM)	2	> 64	2	8 (≈ 15 µM)	2	2 (≈ 3.74 µM)
O=C(/C=C/c1ccc(/C=C2\SC(=S)N([C@@H](Cc3ccccc3)C(=O)O)C2=O)cc1)c1ccc(Cl)cc1	2	4 (≈ 7.49 µM)	2 (≈ 3.74 µM)	8 (≈ 15 µM)	8 (≈ 15 µM)	4 (≈ 7.49 µM)	2	> 64	2	4 (≈ 7.49 µM)	2	2 (≈ 3.74 µM)
O=C(/C=C/c1ccc(/C=C2\SC(=S)N([C@@H](Cc3ccccc3)C(=O)O)C2=O)cc1)c1ccc(Cl)cc1Cl	2	4 (≈ 7.04 µM)	4 (≈ 7.04 µM)	16 (≈ 28.1 µM)	16 (≈ 28.1 µM)	4 (≈ 7.04 µM)	2	> 64	2	16 (≈ 28.1 µM)	2	4 (≈ 7.04 µM)
O=C(/C=C/c1ccc(/C=C2\SC(=S)N([C@@H](Cc3ccccc3)C(=O)O)C2=O)cc1)c1ccccc1Br	2	4 (≈ 6.91 µM)	2 (≈ 3.46 µM)	16 (≈ 27.7 µM)	16 (≈ 27.7 µM)	4 (≈ 6.91 µM)	2	> 64	2	4 (≈ 6.91 µM)	2	2 (≈ 3.46 µM)
O=C(/C=C/c1ccc(/C=C2\SC(=S)N([C@@H](Cc3ccccc3)C(=O)O)C2=O)cc1)c1cccc(Br)c1	2	8 (≈ 13.8 µM)	8 (≈ 13.8 µM)	16 (≈ 27.7 µM)	16 (≈ 27.7 µM)	8 (≈ 13.8 µM)	2	> 64	2	16 (≈ 27.7 µM)	2	8 (≈ 13.8 µM)
O=C(/C=C/c1ccc(/C=C2\SC(=S)N([C@@H](Cc3ccccc3)C(=O)O)C2=O)cc1)c1ccc(Br)cc1	2	8 (≈ 13.8 µM)	2 (≈ 3.46 µM)	4 (≈ 6.91 µM)	4 (≈ 6.91 µM)	2 (≈ 3.46 µM)	2	> 64	2	2 (≈ 3.46 µM)	2	2 (≈ 3.46 µM)
Cc1ccc(C(=O)/C=C/c2ccc(/C=C3\SC(=S)N([C@@H](Cc4ccccc4)C(=O)O)C3=O)cc2)cc1	2	8 (≈ 15.6 µM)	2 (≈ 3.89 µM)	8 (≈ 15.6 µM)	8 (≈ 15.6 µM)	2 (≈ 3.89 µM)	2	> 64	2	2 (≈ 3.89 µM)	2	2 (≈ 3.89 µM)
Cc1ccc(C(=O)/C=C/c2ccc(/C=C3\SC(=S)N([C@@H](Cc4ccccc4)C(=O)O)C3=O)cc2)c(C)c1	2	8 (≈ 15.2 µM)	4 (≈ 7.58 µM)	16 (≈ 30.3 µM)	16 (≈ 30.3 µM)	4 (≈ 7.58 µM)	2	> 64	2	8 (≈ 15.2 µM)	2	4 (≈ 7.58 µM)
COc1ccccc1C(=O)/C=C/c1ccc(/C=C2\SC(=S)N([C@@H](Cc3ccccc3)C(=O)O)C2=O)cc1	2	4 (≈ 7.55 µM)	8 (≈ 15.1 µM)	16 (≈ 30.2 µM)	16 (≈ 30.2 µM)	8 (≈ 15.1 µM)	2	> 64	2	16 (≈ 30.2 µM)	2	8 (≈ 15.1 µM)
COc1cccc(C(=O)/C=C/c2ccc(/C=C3\SC(=S)N([C@@H](Cc4ccccc4)C(=O)O)C3=O)cc2)c1	2	8 (≈ 15.1 µM)	4 (≈ 7.55 µM)	16 (≈ 30.2 µM)	16 (≈ 30.2 µM)	8 (≈ 15.1 µM)	2	> 64	2	8 (≈ 15.1 µM)	2	8 (≈ 15.1 µM)
COc1ccc(C(=O)/C=C/c2ccc(/C=C3\SC(=S)N([C@@H](Cc4ccccc4)C(=O)O)C3=O)cc2)cc1	2	4 (≈ 7.55 µM)	4 (≈ 7.55 µM)	16 (≈ 30.2 µM)	16 (≈ 30.2 µM)	4 (≈ 7.55 µM)	2	> 64	2	4 (≈ 7.55 µM)	2	4 (≈ 7.55 µM)
CC(=O)Nc1ccc(C(=O)/C=C/c2ccc(/C=C3\SC(=S)N([C@@H](Cc4ccccc4)C(=O)O)C3=O)cc2)cc1	2	4 (≈ 7.19 µM)	4 (≈ 7.19 µM)	16 (≈ 28.7 µM)	16 (≈ 28.7 µM)	2 (≈ 3.59 µM)	2	> 64	2	4 (≈ 7.19 µM)	2	4 (≈ 7.19 µM)
O=C(/C=C/c1ccc(/C=C2\SC(=S)N([C@@H](Cc3ccccc3)C(=O)O)C2=O)cc1)c1ccccc1	2	8 (≈ 16 µM)	4 (≈ 8.01 µM)	16 (≈ 32 µM)	8 (≈ 16 µM)	4 (≈ 8.01 µM)	2	> 64	2	4 (≈ 8.01 µM)	2	4 (≈ 8.01 µM)
O=C(O)[C@H](Cc1ccccc1)N1C(=O)/C(=C\c2ccc(OCc3cccc(F)c3)cc2)SC1=S	2	8 (≈ 16.2 µM)	4 (≈ 8.1 µM)	16 (≈ 32.4 µM)	16 (≈ 32.4 µM)	8 (≈ 16.2 µM)	2	> 64	2	8 (≈ 16.2 µM)	2	8 (≈ 16.2 µM)
O=C(O)[C@H](Cc1ccccc1)N1C(=O)/C(=C\c2ccc(OCc3ccc(F)cc3)cc2)SC1=S	2	8 (≈ 16.2 µM)	4 (≈ 8.1 µM)	8 (≈ 16.2 µM)	8 (≈ 16.2 µM)	8 (≈ 16.2 µM)	2	> 64	2	8 (≈ 16.2 µM)	2	8 (≈ 16.2 µM)
O=C(O)[C@H](Cc1ccccc1)N1C(=O)/C(=C\c2ccc(OCc3ccccc3Cl)cc2)SC1=S	2	4 (≈ 7.84 µM)	4 (≈ 7.84 µM)	8 (≈ 15.7 µM)	8 (≈ 15.7 µM)	4 (≈ 7.84 µM)	2	> 64	2	4 (≈ 7.84 µM)	2	4 (≈ 7.84 µM)
O=C(O)[C@H](Cc1ccccc1)N1C(=O)/C(=C\c2ccc(OCc3cccc(Cl)c3)cc2)SC1=S	2	4 (≈ 7.84 µM)	2 (≈ 3.92 µM)	8 (≈ 15.7 µM)	8 (≈ 15.7 µM)	4 (≈ 7.84 µM)	2	> 64	2	4 (≈ 7.84 µM)	2	4 (≈ 7.84 µM)
O=C(O)[C@H](Cc1ccccc1)N1C(=O)/C(=C\c2ccc(OCc3ccc(Cl)cc3)cc2)SC1=S	2	4 (≈ 7.84 µM)	2 (≈ 3.92 µM)	8 (≈ 15.7 µM)	8 (≈ 15.7 µM)	4 (≈ 7.84 µM)	2	> 64	2	4 (≈ 7.84 µM)	2	4 (≈ 7.84 µM)
Cc1onc(-c2ccccc2)c1C(=O)N[C@@H]1C(=O)N2[C@@H]1SC(C)(C)[C@@H]2C(=O)O [OXACILLIN]		1 (≈ 2.49 µM)	1 (≈ 2.49 µM)	1 (≈ 2.49 µM)	1 (≈ 2.49 µM)	> 64		> 64		1 (≈ 2.49 µM)		> 64

Source: ChEMBL document CHEMBL2086385, “Synthesis and antimicrobial evaluation of L-phenylalanine-derived C5-substituted rhodanine and chalcone derivatives containing thiobarbituric acid or 2-thioxo-4-thiazolidinone” (2012)
